From patent US20110052732A1, “MINERAL ABSORPTION ACCELERATOR AND IRON DEFICIENCY ANEMIA IMPROVER OF FOOD COMPOSITION” (FUJIFILM Corporation, priority 2008, published 2011)

System: SD rats
Experiment: Mineral balance test in rats (absorption rate, internal retention rate, serum concentration)
Type: in vivo, rat
Conditions: oral aqueous solution 2.0 g/day; for Absorption rate of calcium / Absorption rate of iron / Absorption rate of magnesium / Absorption rate of zinc / Internal retention rate of calcium / Internal retention rate of iron / Internal retention rate of magnesium / Internal retention rate of zinc: 14 days, then urine and feces collected for 4 days
Text: SD rats (males) of 4 weeks of age after birth were preliminarily reared for 1 week and then divided into a control group and 6 sample ingestion groups, each group consisting of 6 animals, at random based on body weight. In the rats of salacinol administration group, 0.1% salacinol aqueous solution was orally administered at a dose of 2.0 g/day per unit weight of rat. In the rats of voglibose administration group, 0.4% voglibose aqueous solution was orally administered at a dose of 2.0 g/day per unit weight of rat. In the rats of acarbose administration group, 0.4% acarbose aqueous solution was orally administered at a dose of 2.0 g/day per unit weight of rat. In the rats of Salacia extract powder administration group, 1% Salacia extract powder aqueous solution was orally administered at a dose of 2.0 g/day per unit weight of rat. In the rats of mulberry extract powder administration group, 1% mulberry extract powder aqueous solution was orally administered at a dose of 2.0 g/day per unit weight of rat. In the rats of Salacia extract powder+green tea extract administration group, 1% Salacia extract powder+1% green tea extract mixed aqueous solution was orally administered at a dose of 2.0 g/day per unit weight of rat. In the rats of control group, water was orally administered at a dose of 2.0 g/day per unit weight of rat. Each rat was reared with a solid feed (CRF-1 mfd. by Oriental Yeast) for 14 days and then transferred into a cage for metabolism analysis, and urine and feces were collected for a period of 4 days to measure concentrations of iron, calcium, magnesium and zinc. Detection of minerals from feces was carried out using inductively coupled plasma emission spectrometry, and those from urine and serum using atomic absorption method. Absorption rate and internal holding rate of each mineral were calculated using the following formulae. Absorbed amount=ingested amount−discharged amount into feces Absorption rate (%)=absorbed amount÷ingested amount×100 Internally retained amount=absorbed amount−discharged amount into urine Internal retention rate (%)=internally retained amount÷ingested amount×100 Results of the absorption rate and internal retention rate of minerals and concentration of mineral in serum by the mineral balance test are respectively shown in Tables 3 to 5.

| SMILES | Absorption rate of calcium [%] | Absorption rate of iron [%] | Absorption rate of magnesium [%] | Absorption rate of zinc [%] | Internal retention rate of calcium [%] | Internal retention rate of iron [%] | Internal retention rate of magnesium [%] | Internal retention rate of zinc [%] | Concentration of calcium in serum [mg/dL] | Concentration of iron in serum [µg/dL] | Concentration of magnesium in serum [mg/dL] | Concentration of zinc in serum [µg/dL] |
| --- | --- | --- | --- | --- | --- | --- | --- | --- | --- | --- | --- | --- |
| C[C@H]1O[C@H](O[C@H]2[C@H](O)[C@@H](O)[C@@H](O[C@H]3[C@H](O)[C@@H](O)C(O)O[C@@H]3CO)O[C@@H]2CO)[C@H](O)[C@@H](O)[C@@H]1N[C@H]1C=C(CO)[C@@H](O)[C@H](O)[C@H]1O (stereo partly drawn) [Acarbose, acarbose] | 32.8 | 37.5 | 20.8 | 29.3 | 31.5 | 32.8 | 23.1 | 18.4 | 10.9 | 289.3 | 2.01 | 121.3 |
| O=S(=O)([O-])O[C@@H](CO)[C@H](O)C[S@+]1C[C@@H](O)[C@H](O)[C@H]1CO [Salacinol] | 33.2 | 38.5 | 20.5 | 30.1 | 32.3 | 34.2 | 23.6 | 19.5 | 11.8 | 298.6 | 2.06 | 122.7 |
| OCC(CO)N[C@H]1C[C@](O)(CO)[C@@H](O)[C@H](O)[C@H]1O [Voglibose, voglibose] | 32.5 | 37.8 | 21.2 | 29.8 | 32.1 | 33.9 | 24.0 | 18.6 | 10.9 | 292.5 | 2.04 | 120.2 |
